These results are taken from patent US5721213A, “Peptides, active as inhibitors of platelet aggregation” (Nippon Steel Corporation, priority 1993, dated 1998).

Non-standard residues stand in square brackets, D forms with d. Residues, ends and D or L forms follow the SMILES beside them. Sar = CNCC(=O)O

Data set [1] deals with platelets activated by ADP. The note with it: 400 μM; cited from earlier work.
Data set [2] deals with mouse. The data set is described as follows: acute toxicity test. The format is in vivo. The note with it: intravenously injected, 100 mg/Kg.
The subject of data set [3] is platelet aggregation. As to conditions: times as strong as RGDS; cited from earlier work.

For “glycine-arginine-glycine-aspartic acid-serine-proline [GRGDSP]”, the “inhibition of aggregation of platelets activated by ADP” value in data set [1] is listed as “completely inhibited”.

Consider `C[C@H](NC(=O)[C@H](CO)NC(=O)[C@@H]1CCCN1)C(=O)N(C)CC(=O)N[C@@H](CC(=O)O)C(=O)N[C@@H](Cc1c[nH]c2ccccc12)C(=O)O` [Example 1, Pro-Ser-Ala-Sar-Asp-Trp-OH] (H-PSA[Sar]DW-OH), for which the acute toxicity result in data set [2] was “no toxicity was observed”.

In the case of “arginine-glycine-aspartic acid-phenylalanine [RGDF]”, in data set [3], the “platelet aggregation-inhibiting activity relative to RGDS” value is on record as 4-5 times.
